Assay results published in PMC8146397 (Nanomaterials, 2021).
Values joined by “and” are separate entries in the source; they are usually repeats but may differ in a detail not shown here. Equal entries are not always repeated.

Legend:
[1] = In vitro dissolution / CIP release at pH 5.0 for 72 h; type: physicochemical
Salmonella typhi strains = experiment: Antibacterial activity, CFU count / sterilization rate; type: cell-based; conditions: Salmonella typhi 3 × 10^4 cells/ml, 3 h at 37 °C, CFU after 18 h
Description: After incubation, solidified LB agar plat was impregnated with 100 μL of the bacterial suspension.

[2] = In vivo pharmacokinetics after oral delivery (HPLC of plasma); conditions: mice
Description: Healthy mice weighing 30 g were kept in the primate facility with free access to food and water a day before the commencement of the experiment. The mice were divided into two groups (n = 5). […] Blood plasma was stored at −20 °C until further use.

[3] = release kinetic model Ct = C0 + k0t
[4] = release kinetic model Mi/M∞ = Kth + b
[5] = release kinetic model logQ0 + Kit/2.3

O=C(O)c1cn(C2CC2)c2cc(N3CCNCC3)c(F)cc2c1=O [CIP, Ciprofloxacin]
Zero Order K^0 [1, 3]: 32.90 | Zero Order R^2 [1, 3]: 0.5787 ± 2.57 | Korsmeyer-Peppas N (release exponent n) [1, 4]: 0.502 | Korsmeyer-Peppas R2 [1, 4]: 0.9370 ± 4.85 | Higuchi KH ([1]; release kinetic model Q = KH√t): 53.70 | Higuchi R2 ([1]; release kinetic model Q = KH√t): 0.9360 ± 3.57 | First Order K1 [1, 5]: 0.877 | First Order R^2 [1, 5]: 0.9534 ± 1.57 | Sterilizing rate (Salmonella typhi strains): 9 ± 3.25% | AUMC 0-inf [2]: 900.65 μg/mL × h^2 and 900.65 ± 1.57 μg/mL × h^2
